In ChEMBL document CHEMBL4308829, “Design and Synthesis of Novel Positive Allosteric Modulators of α7 Nicotinic Acetylcholine Receptors with the Ability To Rescue Auditory Gating Deficit in Mice” (J Med Chem, 2018):
Calls of active or inactive are those of the source.

What was measured:
[1] = molecular target: T1, Neuronal acetylcholine receptor subunit alpha-7 (Homo sapiens, UniProt P36544); assay: Positive allosteric modulation of human alpha7 nAChR expressed in Xenopus laevis oocytes assessed as increase in acetylcholine-induced channel current at 10 uM at -90 mV holding potential preincubated for 2 mins followed by co-application with acetylcholine for 10 secs by two-electrode voltage clamp method relative to control; type: cell-based
[2] = molecular target: T1, Neuronal acetylcholine receptor subunit alpha-7; assay: Agonist activity at human alpha7 nAChR expressed in Xenopus laevis oocytes assessed as induction of channel current at -90 mV holding potential by two-electrode voltage clamp method; type: cell-based
[3] = molecular target: T1, Neuronal acetylcholine receptor subunit alpha-7; assay: Positive allosteric modulation of human alpha7 nAChR expressed in Xenopus laevis oocytes assessed as increase in acetylcholine-induced channel current at -90 mV holding potential preincubated for 2 mins followed by co-application with acetylcholine for 10 secs by two-electrode voltage clamp method; type: cell-based
Mus musculus = assay: Anti-schizophrenic activity in C57BL/6J mouse assessed as protection against MK-801-induced auditory gating deficit by measuring prepulse inhibition impairment at 1 mg/kg, ip at 8 to 16 dB prepulse intensity (reference value: 11%); type: functional; parameters: scale not given: the % may be the effect or the level left

T1 sequence (P36544 whole entry): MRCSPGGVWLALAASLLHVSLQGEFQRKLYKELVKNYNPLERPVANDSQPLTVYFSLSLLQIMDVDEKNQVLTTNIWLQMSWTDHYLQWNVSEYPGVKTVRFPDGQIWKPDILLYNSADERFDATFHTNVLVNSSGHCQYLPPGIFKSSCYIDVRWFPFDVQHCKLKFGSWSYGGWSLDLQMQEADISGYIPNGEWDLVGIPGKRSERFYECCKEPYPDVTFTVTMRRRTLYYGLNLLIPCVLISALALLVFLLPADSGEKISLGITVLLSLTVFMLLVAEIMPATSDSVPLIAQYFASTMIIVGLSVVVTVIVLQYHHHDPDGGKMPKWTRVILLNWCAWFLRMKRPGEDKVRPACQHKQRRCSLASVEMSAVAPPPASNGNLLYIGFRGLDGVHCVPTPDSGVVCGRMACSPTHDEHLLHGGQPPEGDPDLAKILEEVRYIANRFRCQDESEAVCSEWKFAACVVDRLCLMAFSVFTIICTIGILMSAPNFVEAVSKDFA

| Structure (SMILES) | %max [1] | Activity [2] | EC50 [3] | Activity (Mus musculus) |
| --- | --- | --- | --- | --- |
| Cc1cc(Cl)cc(Nc2nc3ncn(-c4c(C)cccc4Cl)c(=O)c3s2)c1 | 305% | inactive |  |  |
| Cc1cccc(Cl)c1-n1cnc2nc(Nc3cc(Cl)ncn3)sc2c1=O | 200% | inactive |  |  |
| Cc1ccc(Nc2nc3ncn(-c4c(C)cccc4Cl)c(=O)c3s2)cc1C | 650% | inactive |  |  |
| O=c1c2sc(SCc3ccccc3)nc2ncn1-c1ccccc1Cl | 217% | inactive |  |  |
| Cc1cccc(Cl)c1-n1cnc2nc(Nc3cccc(Cl)c3)sc2c1=O | 300% | inactive |  |  |
| Cc1ccc(-c2nc3ncn(-c4c(C)cccc4Cl)c(=O)c3s2)cc1 | 185% | inactive |  |  |
| Cc1cccc(Cl)c1-n1cnc2nc(Nc3ccc(F)cc3)sc2c1=O | 250% | inactive |  |  |
| COc1ccc(Nc2nc3ncn(-c4c(C)cccc4Cl)c(=O)c3s2)cc1 | 200% | inactive |  |  |
| O=c1c2sc(SCc3ccccc3)nc2ncn1-c1ccccc1F | 127% | inactive |  |  |
| Cc1ccc(CSc2nc3ncn(-c4c(C)cccc4Cl)c(=O)c3s2)cc1 | 321% | inactive |  |  |
| O=c1c2sc(SCc3ccccc3)nc2ncn1-c1ccc(Cl)cc1 | 104% | inactive |  |  |
| Cc1cccc(Cl)c1-n1cnc2nc(Nc3cccc(F)c3)sc2c1=O | 450% | inactive |  |  |
| Cc1cccc(Cl)c1Nc1ncnc2nc(SCc3ccccc3)sc12 | 33% | inactive |  |  |
| Cc1cccc(Cl)c1-n1cnc2nc(SCc3ccc(F)cc3)sc2c1=O | 788% | inactive | 2.17 µM |  |
| Cc1ccc(Sc2nc3ncn(-c4c(C)cccc4Cl)c(=O)c3s2)cc1 | 226% | inactive |  |  |
| CN1CCN(C2=Nc3cc(Cl)ccc3Nc3ccccc32)CC1 [CLOZAPINE] |  |  |  | 32% |
| Cc1cccc(Cl)c1-n1cnc2nc(SCc3ccc(Cl)cc3)sc2c1=O | 444% | inactive | 1.19 µM |  |
| Cc1nc(Cl)cc(Nc2nc3ncn(-c4c(C)cccc4Cl)c(=O)c3s2)n1 | 320% | inactive |  |  |
| Cc1cccc(Cl)c1-n1cnc2nc(Nc3ccc(Cl)nn3)sc2c1=O | inactive | inactive |  |  |
| Cc1cccc(Cl)c1-n1cnc2nc(Nc3ccc(Cl)cc3)sc2c1=O | 200% | inactive |  |  |
| Cc1cc(C)cc(Nc2nc3ncn(-c4c(C)cccc4Cl)c(=O)c3s2)c1 | 1100% | inactive |  |  |
| Cc1ccc(S(=O)(=O)Nc2nc3ncn(-c4c(C)cccc4Cl)c(=O)c3s2)cc1 | 97% | inactive |  |  |

The next lines start with results.

| %max [1] | Activity [2] | EC50 [3] | Structure (SMILES) | Activity (Mus musculus) |
| --- | --- | --- | --- | --- |
| 450% | inactive | 20.4 µM | Cc1ccc(C(=O)Nc2nc3ncn(-c4c(C)cccc4Cl)c(=O)c3s2)cc1 |  |
| 300% | inactive |  | Cc1cccc(Cl)c1-n1cnc2nc(Nc3ccccc3)sc2c1=O |  |
| 300% | inactive |  | Cc1cccc(Cl)c1-n1cnc2nc(Nc3ccc(F)c(F)c3)sc2c1=O |  |
| 1140% | inactive | 7.65 µM | Cc1cccc(Cl)c1-n1cnc2nc(SCc3cccc(F)c3)sc2c1=O |  |
| 171% | inactive |  | Cc1ccccc1-n1cnc2nc(SCc3ccccc3)sc2c1=O |  |
| 112% | inactive |  | Cc1cccc(Cl)c1-n1cnc2nc(SCCc3ccccc3)sc2c1=O |  |
| inactive | inactive |  | Cc1cccc(Cl)c1-n1cnc2nc(Nc3ccccn3)sc2c1=O |  |
| 292% | inactive |  | COc1ccc(CSc2nc3ncn(-c4c(C)cccc4Cl)c(=O)c3s2)cc1 |  |
| 150% | inactive |  | Cc1cccc(Cl)c1-n1cnc2nc(Nc3ccc(Br)cc3)sc2c1=O |  |
| 107% | inactive |  | Cc1ccc(N(C)c2nc3ncn(-c4c(C)cccc4Cl)c(=O)c3s2)cc1 |  |
| 320% | inactive |  | Cc1cccc(Cl)c1-n1cnc2nc(SCc3ccc(Br)cc3)sc2c1=O |  |
| 387% | inactive | 5.65 µM | Cc1ccc(Nc2nc3ncn(-c4c(C)cccc4Cl)c(=O)c3s2)cc1F |  |
| 63% | inactive |  | Cc1ccc(Nc2ccc3ncn(-c4c(C)cccc4Cl)c(=O)c3c2)cc1 |  |
| 1540% | inactive |  | Cc1cccc(Nc2nc3ncn(-c4c(C)cccc4Cl)c(=O)c3s2)c1 |  |
| 300% | inactive |  | Cc1ccccc1Nc1nc2ncn(-c3c(C)cccc3Cl)c(=O)c2s1 |  |
| 111% | inactive |  | Cc1ccc(CNc2nc3ncn(-c4c(C)cccc4Cl)c(=O)c3s2)cc1 |  |
| 250% | inactive |  | CCc1ccc(Nc2nc3ncn(-c4c(C)cccc4Cl)c(=O)c3s2)cc1 |  |
| 75% | inactive |  | O=c1c2sc(SCc3ccccc3)nc2ncn1-c1ccc(F)cc1 |  |
| inactive | inactive |  | Cc1cccc(Cl)c1-n1cnc2nc(NCc3ccccc3)sc2c1=O |  |
| 174% | inactive |  | Cc1cccc(Cl)c1-n1cnc2nc(SCCCc3ccccc3)sc2c1=O |  |
| 200% | inactive |  | Cc1cccc(Cl)c1-n1cnc2nc(Nc3ccccc3F)sc2c1=O |  |
| 101% | inactive |  | Cc1cccc(Cl)c1-n1cnc2nc(Nc3ccncn3)sc2c1=O |  |
| 200% | inactive |  | Cc1cccc(Cl)c1-n1cnc2nc(Nc3ccc(OC(F)(F)F)cc3)sc2c1=O |  |
| 558% | inactive | 2.05 µM | Cc1cccc(Cl)c1-n1cnc2nc(SCc3ccccc3F)sc2c1=O |  |
| 600% | inactive |  | Cc1cc(Nc2nc3ncn(-c4c(C)cccc4Cl)c(=O)c3s2)cc(C)c1C |  |
| inactive | inactive |  | CCCNc1nc2ncn(-c3c(C)cccc3Cl)c(=O)c2s1 |  |
| 1620% | inactive | 8.45 µM | Cc1ccc(Nc2nc3ncn(-c4c(C)cccc4Cl)c(=O)c3s2)cc1 |  |
| 1050% | inactive | 3.54 µM | Cc1cccc(Cl)c1-n1cnc2nc(SCc3ccc(F)cc3F)sc2c1=O |  |
| 119% | inactive |  | O=c1c2sc(SCc3ccccc3)nc2ncn1-c1cccc(F)c1 |  |
